Experimental data taken from patent US9492554B2, “Methods and compositions related to viral inhibition” (Clemson University Research Foundation (CURF), priority 2009, dated 2016).

What was measured:
[1] = tested on: TAR RNA; test: UV melting of TAR RNA in presence of ligands (Tm, ΔTm); type: binding, HIV-1; conditions: for ΔTm (° C.): TAR RNA with ligand vs control, Table 10; for Tm (° C.): TAR RNA with ligand, control without ligand 69.3
Method: The reactions were done in the presence of 10 mM sodium cacodylate, 0.5 mM EDTA, 0.1 mM MgCl2 pH 7.0. The heating rate was 0.3° C./min.
UV melting studies of TAR were performed in the presence and absence of various ligands (FIG. 13).

[2] = tested on: HIV; test: Protection from HIV cytopathic effects; type: cell-based; conditions: at 24 microM
[3] = tested on: HIVNL4-3 in MT-2 cells; test: HIV antigen synthesis in treated cells, immunofluorescence assay (IFA); type: cell-based; conditions: for percentage of cells positive for HIV antigens, Day 2: MT-2 cells, microM: DPA119 24, DPA52 25, DPA53 9, DPA54 17, DPA55 4, DPA56 8, DPA121 25, virus control 15%; for percentage of cells positive for HIV antigens, Day 4 / percentage of cells positive for HIV antigens, Day 6: same concentrations, virus control 100%
Method: (§1) Anti-HIV activities can be routinely checked by measuring the percentage of cells positive for HIV antigens using immunofluorescence assay (IFA) and for the release of pelletable reverse transcriptase (RT) into the supernatant. For these assays, 500,000 MT-2 cells in 1 ml of media were added to the wells of a 24 well tissue culture plate. Next, 0.5 ml of 4× concentrated compound was added to triplicate wells of the plate. The cells and compounds were incubated for 1 hr at 37 C. Finally, 0.5 ml of HIVNL4-3, produced in H9 cells (a CD4+ lymphoblastoid cell line), 100,000 cpm of RT activity per well, was added to each well. Virus control wells contained no compounds. This inoculum is at a multiplicity of infection less than 1. On days 2, 4, and 6, 0.75 mls of supernatants were removed and placed into individual microfuge tubes for RT assay. Next, cells were resuspended in the media and 0.5 mls of the total remaining volume was removed for IFA. Cells were combined from their triplicate infections, pelleted, and the enriched cells were air-dried onto glass slides. The dried cells were fixed in acetonemethanol (50:50). After fixing, cells were stained with HIV immunoglobulin, washed in PBS, and counter-stained with FITC-conjugated goat and human IgG. Slides were washed in PBS and the percentage of HIV-positive cells was determined by epifluorescence (Robinson et al. J Acquire Immune Defic Syndr 2:33-42, 1989).

[4] = tested on: HIVNL4-3 in MT-2 cells; test: Release of reverse transcriptase into the culture supernatant; type: cell-based, HIV; conditions: for Release of reverse transcriptase into the culture supernatant, Day 2: mean of triplicate infections (SD), microM: DPA119 24, DPA52 25, DPA53 9, DPA54 17, DPA55 4, DPA56 8, DPA121 25, virus control 46,029; for Release of reverse transcriptase into the culture supernatant, Day 4 / Release of reverse transcriptase into the culture supernatant, Day 6: mean of triplicate infections; for Release of reverse transcriptase into the culture supernatant, Day 4: virus control 928,112; for Release of reverse transcriptase into the culture supernatant, Day 6: virus control 1,078,741
From the text: as §1, with “The disclosed conjugates also reduce the amount of reverse transcriptase (RT) released into the cell culture supernatant upon in vitro cell culture experiments (Table 14 below). […] It is possible that even though the cells are positive for HIV, they are making much fewer unspliced transcripts, and thus the virion release into the media remains suppressed. […] Anti-HIV” for “Anti-HIV”, “On days 2, 4, and 6, 0.75 mls of supernatants were removed and placed into individual microfuge tubes for RT assay.” left out, “[…] The supernatants from each well were precipitated at 4 C overnight in a solution including 30% polyethylene glycol. After precipitation, precipitate was lysed in a solution containing Triton X100, Tris buffer, and DTT. RT activity of each aliquot was determined as incorporation of 3H-dTTP into a poly rA-oligo dT template. After a one hour assay at 37 C, the incorporated dTTP was precipitated onto a ZetaProbe (BioRad) membrane. Slots were excised and placed into liquid scintillation cocktail. After overnight incubation, counts per minute for each sample was determined on a beta counter. Results were calculated as cpm/ml of original culture supernatant (Robinson et al.” for “J Acquire Immune Defic Syndr 2:33-42, 1989).”

[5] = target: HIV-1 TAR RNA; test: HIV-1 TAR RNA competition FRET binding assay (Tat peptide probe); conditions: 100 nM TAR RNA, 100 nM Tat peptide, 25° C., 60 min
Method: Before used, HIV-1 TAR RNA (5′-GGC AGA UCUGAG CCU GGG AGC UCU CUG CC-3′, Thermo Scientific) in 10 μM batch in sterile water was heated to 95° C. for 4.5 min, and then cooled rapidly in ice bath for 5 min. This snap-cooling causes the RNA to adopt the kinetically favored hairpin rather than thermodynamically favored duplexes.
The relative affinity of each polyamine for HIV-1 TAR RNA was determined using Fluorescence Resonance Energy Transfer (FRET)-based competitive binding assay with a fluorescein-labeled HIV-1 Tat peptide as described in the literature. The fluorescence experiments were performed with a Spectra Max Fluorimeter (Molecular Devices) at 25° C., with excitation and emission wavelengths of 495 and 570 nm, respectively. All samples were prepared in 96 well plates in 1×TK buffer (50 mM Tris, 20 mM KCl, pH=7.4) with 0.1% Trixton-100 (Sigma).
To a solution of 100 nM HIV-1 TAR RNA and 100 nM fluorescein-labeled HIV-1 Tat peptide, appropriate concentrations (0 nM to 100 μM) of the antagonists were added at 25° C.; total volume of the incubation solution was 80 μL. After 60 min, fluorescence changes of the sample solution were determined by the Spectra Max Fluorimeter Detector.

[6] = tested on: cells
[7] = target: HIV-1 RRE RNA; test: HIV-1 RRE RNA competition binding assay (fluorescence polarization, Rev peptide probe); conditions: 100 nM RRE RNA, 10 nM Rev peptide, 25° C., 1 hour; Table 16
Method: Before used, HIV-1 RRE RNA (5′-GGUCUGGGCGCAGCGCAAGCUGACGGUACAGGCC-3′, Thermo Scientific) in 10 μM batch in sterile water was heated to 95° C. for 3 min, and then cooled to ambient temperature over 1 hour.
The relative affinity of each compound for HIV-1 RRE RNA was determined using fluorescence polarization-based competitive binding assay with a fluorescein-labeled HIV-1 Rev peptide. The anisotropy experiments were performed with a Spectra Max Fluorimeter (Molecular Devices) at 25° C., with excitation and emission wavelengths of 485 and 525 nm, respectively. All samples were prepared in 96 well plates in binding buffer (30 mM Hepes, 100 mM KCl, 40 mM NaCl, 10 mM NH4OAc, 10 mM Guanidinium Hydrochloride, 2 mM MgCl2, 0.5 mM EDTA, pH 7.4) with 0.01% triton-X100 (Sigma). The binding data reported for each conjugate are the averages of 3˜5 individual measurements.
A solution of 100 nM RRE RNA and 10 nM fluorescein-labeled HIV-1 Rev peptide was incubated at 25° C. After 10 min, appropriate concentrations (0 nM to 500 μM) of the antagonists were added; total volume of the incubation solution was […]. After 1 hour, the amount of the dissociated fluorescent probe was determined by the Spectra Max fluorescence plate reader. The experimental dose-response data for a given antagonist were fit to a sigmoidal dose-response nonlinear regression model on GraphPad Prism 4.0 to afford the IC50 values for each conjugates (Table 16).

CN1CCN(c2ccc3nc(-c4ccc(OCCn5cc(COCc6cn(C[C@H]7OC(OC8C(O)[C@H](N)CC(N)[C@H]8O[C@H]8OC(CN)[C@@H](O)C(O)C8N)C(O)C7O[C@H]7OC(CN)[C@@H](O)C(O)C7N)nn6)nn5)cc4)[nH]c3c2)CC1 (some centres unmarked) [DPA119]
ΔTm (° C.) [1]: 4.2 °C
Tm (° C.) [1]: 73.5 °C
protection from HIV cytopathic effects [2]: 16%
percentage of cells positive for HIV antigens, Day 2 [3]: 5-7%
percentage of cells positive for HIV antigens, Day 4 [3]: 90%
percentage of cells positive for HIV antigens, Day 6 [3]: 100%
Release of reverse transcriptase into the culture supernatant, Day 2 [4]: 16,576 (3,815) cpm/ml
Release of reverse transcriptase into the culture supernatant, Day 4 [4]: 241,955 cpm/ml
Release of reverse transcriptase into the culture supernatant, Day 6 [4]: 399,421 cpm/ml
IC50 ([5]; Table 17): 0.464 ± 0.146 µM
5% Toxicity microM [6]: 94 µM

CN1CCN(c2ccc3nc(-c4ccc(OCCn5cc(CCCCCCc6cn(C[C@H]7OC(OC8C(O)[C@H](N)CC(N)[C@H]8O[C@H]8OC(CN)[C@@H](O)C(O)C8N)C(O)C7O[C@H]7OC(CN)[C@@H](O)C(O)C7N)nn6)nn5)cc4)[nH]c3c2)CC1 (some centres unmarked) [DPA122]
ΔTm (° C.) [1]: 5.4 °C
Tm (° C.) [1]: 74.8 °C
IC50 [7]: 0.0054 ± 0.0024 µM
IC50 ([5]; Table 17): 0.825 ± 0.145 µM
5% Toxicity microM [6]: 46 µM

CN1CCN(c2ccc3nc(-c4ccc(OCCn5cc(CCCCc6cn(C[C@H]7OC(OC8C(O)[C@H](N)CC(N)[C@H]8O[C@H]8OC(CN)[C@@H](O)C(O)C8N)C(O)C7O[C@H]7OC(CN)[C@@H](O)C(O)C7N)nn6)nn5)cc4)[nH]c3c2)CC1 (some centres unmarked) [DPA121]
percentage of cells positive for HIV antigens, Day 2 [3]: 15%
percentage of cells positive for HIV antigens, Day 4 [3]: 100%
percentage of cells positive for HIV antigens, Day 6 [3]: 100%
Release of reverse transcriptase into the culture supernatant, Day 2 [4]: 26,499 (5,566) cpm/ml
Release of reverse transcriptase into the culture supernatant, Day 4 [4]: 579,856 cpm/ml
Release of reverse transcriptase into the culture supernatant, Day 6 [4]: 880,573 cpm/ml
IC50 [7]: 30.5 ± 11.1 µM
IC50 ([5]; Table 17): 0.686 ± 0.11 µM
5% Toxicity microM [6]: >186 µM

CN1CCN(c2ccc3nc(-c4ccc(OCCn5cc(CCCc6cn(C[C@H]7OC(OC8C(O)[C@H](N)CC(N)[C@H]8O[C@H]8OC(CN)[C@@H](O)C(O)C8N)C(O)C7O[C@H]7OC(CN)[C@@H](O)C(O)C7N)nn6)nn5)cc4)[nH]c3c2)CC1 (some centres unmarked) [DPA120]
ΔTm (° C.) [1]: 3.9 °C
Tm (° C.) [1]: 73.2 °C
IC50 [7]: 15.3 ± 6.9 µM
IC50 ([5]; Table 17): 1.7 ± 0.3 µM
5% Toxicity microM [6]: 94 µM

CN1CCN(c2ccc3nc(-c4ccc(OCc5cn(CCCCCCn6cc(CCCCc7cn(C[C@H]8OC(OC9C(O)[C@H](N)CC(N)[C@H]9O[C@H]9OC(CN)[C@@H](O)C(O)C9N)C(O)C8OC8OC(CN)C(O)C(O)C8N)nn7)nn6)nn5)cc4)[nH]c3c2)CC1 (some centres unmarked) [DPA114]
ΔTm (° C.) [1]: 3.8 °C
Tm (° C.) [1]: 73.1 °C
IC50 ([5]; Table 17): 11.6 ± 2.3 µM
5% Toxicity microM [6]: 11 µM

CN1CCN(c2ccc3nc(-c4ccc(OCCn5cc(-c6ccc(-c7cn(C[C@H]8OC(OC9C(O)[C@H](N)CC(N)[C@H]9O[C@H]9OC(CN)[C@@H](O)C(O)C9N)C(O)C8O[C@H]8OC(CN)[C@@H](O)C(O)C8N)nn7)cc6)nn5)cc4)[nH]c3c2)CC1 (some centres unmarked) [DPA118]
ΔTm (° C.) [1]: 4.8 °C
Tm (° C.) [1]: 74.1 °C
IC50 ([5]; Table 17): 12.1 ± 5.4 µM
5% Toxicity microM [6]: >184 µM

CN1CCN(c2ccc3nc(-c4ccc(OCc5cn(CCCCCCCCCCn6cc(CCCCc7cn(C[C@H]8OC(OC9C(O)[C@H](N)CC(N)[C@H]9O[C@H]9OC(CN)[C@@H](O)C(O)C9N)C(O)C8O[C@H]8OC(CN)[C@@H](O)C(O)C8N)nn7)nn6)nn5)cc4)[nH]c3c2)CC1 (some centres unmarked) [DPA117]
ΔTm (° C.) [1]: 6.3 °C
Tm (° C.) [1]: 75.6 °C
IC50 [7]: 15.5 ± 6.3 µM
IC50 ([5]; Table 17): 1.3 ± 0.2 µM
5% Toxicity microM [6]: 41 µM

CN1CCN(c2ccc3nc(-c4ccc(OCc5cn(CCn6cc(CCCCc7cn(C[C@H]8OC(OC9C(O)[C@H](N)CC(N)[C@H]9O[C@H]9OC(CN)[C@@H](O)C(O)C9N)C(O)C8O[C@H]8OC(CN)[C@@H](O)C(O)C8N)nn7)nn6)nn5)cc4)[nH]c3c2)CC1 (some centres unmarked) [DPA113]
ΔTm (° C.) [1]: 3.1 °C
Tm (° C.) [1]: 72.4 °C
IC50 ([5]; Table 17): 61.3 ± 18.1 µM
5% Toxicity microM [6]: 176 µM

CN1CCN(c2ccc3nc(-c4ccc(OCc5cn(CCCCCCCCn6cc(CCCCc7cn(C[C@H]8OC(OC9C(O)[C@H](N)CC(N)[C@H]9O[C@H]9OC(CN)[C@@H](O)C(O)C9N)C(O)C8O[C@H]8OC(CN)[C@@H](O)C(O)C8N)nn7)nn6)nn5)cc4)[nH]c3c2)CC1 (some centres unmarked) [DPA116]
ΔTm (° C.) [1]: 3.8 °C
Tm (° C.) [1]: 73.1 °C
IC50 ([5]; Table 17): 4.3 ± 0.6 µM
5% Toxicity microM [6]: 83 µM

CN1CCN(c2ccc3nc(-c4ccc(OCc5cn(C[C@H]6OC(OC7C(O)[C@H](N)CC(N)[C@H]7O[C@H]7OC(CN)[C@@H](O)C(O)C7N)C(O)C6O[C@H]6OC(CN)[C@@H](O)C(O)C6N)nn5)cc4)[nH]c3c2)CC1 (some centres unmarked) [DPA123]
IC50 [7]: 0.768 ± 0.309 µM
IC50 ([5]; Table 18): 0.155 ± 0.049 µM
